Data reported in ChEMBL document CHEMBL3853342, “Design, synthesis and biological evaluation of novel benzo-α-pyrone containing piperazine derivatives as potential BRAFV600E inhibitors” (Bioorg Med Chem Lett, 2016).

Columns and labels:
[1] = biological target: Serine/threonine-protein kinase B-raf (Homo sapiens, UniProt P15056, V600E); test: Inhibition of human recombinant GST-tagged BRAF catalytic domain (416 to 766 residues) V600E mutant expressed in baculovirus expression system preincubated for 1 hr followed by human full length recombinant N-terminal His-tagged MEK1 substrate addition measured after 25 mins by gel electrophoresis method
[2] = Antiproliferative activity against human A375 cells assessed as cell growth inhibition after 24 hrs by MTT assay; format: functional, cell-based; conditions: A-375, 24 h
[3] = Antiproliferative activity against human WM266.4 cells harboring BRAF V600E mutant assessed as cell growth inhibition after 24 hrs by MTT assay; format: functional, cell-based; conditions: WM 266-4, 24 h
[4] = Antiproliferative activity against human WM1361 cells assessed as cell growth inhibition after 24 hrs by MTT assay; format: functional, cell-based; conditions: WM1361, 24 h
[5] = Cytotoxicity against human 293T cells assessed as cell growth inhibition after 24 hrs by MTT assay; format: toxicity, cell-based, HEK-293T

Sequence of Serine/threonine-protein kinase B-raf (P15056 2-766 V600E limits assumed): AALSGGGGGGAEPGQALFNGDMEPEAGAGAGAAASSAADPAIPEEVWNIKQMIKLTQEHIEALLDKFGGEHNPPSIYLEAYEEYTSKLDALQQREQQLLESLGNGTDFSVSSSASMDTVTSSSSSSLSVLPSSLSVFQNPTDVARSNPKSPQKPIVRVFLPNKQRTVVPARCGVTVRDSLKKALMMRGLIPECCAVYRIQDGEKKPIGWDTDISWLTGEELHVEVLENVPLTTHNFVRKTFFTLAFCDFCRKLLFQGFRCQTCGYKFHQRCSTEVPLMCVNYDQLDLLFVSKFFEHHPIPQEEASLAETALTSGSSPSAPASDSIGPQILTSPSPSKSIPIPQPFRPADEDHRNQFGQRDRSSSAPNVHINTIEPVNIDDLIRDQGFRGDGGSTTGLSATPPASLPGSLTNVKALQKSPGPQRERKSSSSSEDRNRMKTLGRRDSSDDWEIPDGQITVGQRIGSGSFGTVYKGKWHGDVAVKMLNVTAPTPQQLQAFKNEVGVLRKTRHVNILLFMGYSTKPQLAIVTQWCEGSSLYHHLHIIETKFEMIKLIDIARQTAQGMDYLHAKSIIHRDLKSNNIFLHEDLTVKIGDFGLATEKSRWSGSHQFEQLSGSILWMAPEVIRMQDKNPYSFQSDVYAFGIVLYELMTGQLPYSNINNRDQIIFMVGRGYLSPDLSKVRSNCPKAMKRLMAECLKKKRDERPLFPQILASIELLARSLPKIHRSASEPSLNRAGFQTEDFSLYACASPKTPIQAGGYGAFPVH

Structure (SMILES)	IC50 [1]	IC50 [2]	IC50 [3]	IC50 [4]	CC50 at 24 h [5]
O=c1oc2ccccc2c(N2CCN(C(c3ccccc3)c3ccc(Cl)cc3)CC2)c1CO (stereo not given)	0.92 µM	3.89 µM	2.74 µM	30.2 µM	> 50 µM
O=c1oc2ccccc2c(N2CCN(c3cccc(Cl)c3)CC2)c1CO	33.5 µM	40.5 µM	46.3 µM	> 50 µM	> 50 µM
O=c1oc2ccccc2c(N2CCN(C(c3ccc(F)cc3)c3ccc(F)cc3)CC2)c1CO	0.68 µM	3.16 µM	2.57 µM	29.4 µM	> 50 µM
COc1cccc(N2CCN(c3c(CO)c(=O)oc4ccccc34)CC2)c1	1.76 µM	6.51 µM	5.33 µM	38.1 µM	> 50 µM
